This note sets out measurements from patent publication US20220183294A1, “PESTICIDALLY ACTIVE AZOLE AMIDE COMPOUNDS” (SYNGENTA CROP PROTECTION AG, priority 2019, published 2022).

For data set [1], the system named is Spodoptera littoralis (Egyptian cotton leaf worm). The data set is described as follows: Example B9: Spodoptera littoralis (Egyptian cotton leaf worm), sprayed cotton leaf discs. The data set is classed as in vivo. As to conditions: foliar, 72 h, application rate 200 ppm, L1 larvae, 3 days after infestation, read-out: control in at least one of the three categories (mortality, anti-feedant effect, or growth inhibition). The procedure:
Example B9: Spodoptera littoralis (Egyptian cotton leaf worm)
Cotton leaf discs were placed onto agar in 24-well microtiter plates and sprayed with aqueous test solutions prepared from 10′000 ppm DMSO stock solutions. After drying the leaf discs were infested with five L1 larvae. The samples were assessed for mortality, anti-feeding effect, and growth inhibition in comparison to untreated samples 3 days after infestation. Control of Spodoptera littoralis by a test sample is given when at least one of the categories mortality, anti-feedant effect, and growth inhibition is higher than the untreated sample.

In data set [2] the test system is Plutella xylostella (Diamondback Moth). Description: Example B13: Plutella xylostella (Diamondback Moth), artificial diet, 96-well. Format: in vivo. The conditions noted are these: 216 h, application rate 500 ppm, eggs/L1 larvae, 9 days after infestation. On the procedure:
Example B13: Plutella xylostella (Diamondback Moth)
96-well microtiter plates containing artificial diet were treated with aqueous test solutions, prepared from 10′000 ppm DMSO stock solutions, by a liquid handling robot. After drying, eggs (-30 per well) were infested onto a netted lid which was suspended above the diet. The eggs hatch and L1 larvae move down to the diet. The samples were assessed for mortality 9 days after infestation.
The following compounds gave an effect of at least 80% mortality at an application rate of 500 ppm: […]

The subject of data set [3] is Chilo suppressalis (Striped rice stemborer). The data set is described as follows: Example B4: Chilo suppressalis (Striped rice stemborer), artificial diet. The data set is classed as in vivo. As to conditions: 144 h, application rate 200 ppm, L2 larvae, 6 days after infestation, read-out: control in at least one of the three categories (mortality, anti-feedant effect, or growth inhibition). On the procedure: Example B4: Chilo suppressalis (Striped rice stemborer) 24-well microtiter plates with artificial diet were treated with aqueous test solutions prepared from 10′000 ppm DMSO stock solutions by pipetting. After drying, the plates were infested with L2 larvae (6-8 per well). The samples were assessed for mortality, anti-feeding effect, and growth inhibition in comparison to untreated samples 6 days after infestation. Control of Chilo suppressalis by a test sample is given when at least one of the categories mortality, anti-feedant effect, and growth inhibition is higher than the untreated sample.

The subject of data set [4] is Diabrotica balteata (Corn root worm). Description: Example B1: Diabrotica balteata (Corn root worm), sprayed maize sprouts. Format: in vivo. The conditions noted are these: 96 h, application rate 200 ppm, L2 larvae, 4 days after infestation, read-out: control in at least one of the two categories (mortality or growth inhibition). The procedure:
Example B1: Diabrotica balteata (Corn root worm)
Maize sprouts placed onto an agar layer in 24-well microtiter plates were treated with aqueous test solutions prepared from 10′000 ppm DMSO stock solutions by spraying. After drying, the plates were infested with L2 larvae (6 to 10 per well). The samples were assessed for mortality and growth inhibition in comparison to untreated samples 4 days after infestation.
(§1) The following compounds gave an effect of at least 80% control in at least one of the two categories (mortality or growth inhibition) at an application rate of 200 ppm: […]

The test system of data set [5] is Plutella xylostella (Diamond back moth). The data set is described as follows: Example B5: Plutella xylostella (Diamond back moth), artificial diet, 24-well. The data set is classed as in vivo. The conditions noted are these: 192 h, application rate 200 ppm, eggs, 8 days after infestation, read-out: control in at least one of the two categories (mortality or growth inhibition). On the procedure:
Example B5: Plutella xylostella (Diamond back moth)
24-well microtiter plates with artificial diet were treated with aqueous test solutions prepared from 10′000 ppm DMSO stock solutions by pipetting. After drying, Plutella eggs were pipetted through a plastic stencil onto a gel blotting paper and the plate was closed with it. The samples were assessed for mortality and growth inhibition in comparison to untreated samples 8 days after infestation.
as §1

In data set [6] the test system is Euschistus heros (Neotropical Brown Stink Bug). The data set is described as follows: Example B2: Euschistus heros (Neotropical Brown Stink Bug), sprayed soybean leaves. The conditions noted are these: 120 h, application rate 200 ppm, N2 nymphs, 5 days after infestation, read-out: effect in at least one of the two categories (mortality or growth inhibition). The data set is classed as in vivo. The procedure: Example B2: Euschistus heros (Neotropical Brown Stink Bug)
Soybean leaves on agar in 24-well microtiter plates were sprayed with aqueous test solutions prepared from 10′000 ppm DMSO stock solutions. After drying the leaves were infested with N2 nymphs. The samples were assessed for mortality and growth inhibition in comparison to untreated samples 5 days after infestation.
The following compounds gave an effect of at least 80% in at least one of the two categories (mortality or growth inhibition) at an application rate of 200 ppm: […]

In the case of `CC(NC(=O)c1cc(C(F)(F)F)nc(C2(C#N)CC2)c1)c1ncnn1-c1ccc(C#N)cn1` (stereo not drawn) [P3, 2-(1-cyanocyclopropyl)-N-[1-[2-(5-cyano-2-pyridyl)-1,2,4-triazol-3-yl]ethyl]-6-(trifluoromethyl)pyridine-4-carboxamide], the percent control (mortality, anti-feedant effect or growth inhibition) at 200 ppm in data set [1] and in data set [3] was at least 80% throughout. In data set [2], the mortality (as a rule, the percentage killed) at 500 ppm was at least 80%. Further, the percent control (mortality or growth inhibition) at 200 ppm in data set [4] and in data set [5] was at least 80% throughout.

Regarding `CC(NC(=O)c1cc(C(F)(F)F)cc(C(F)(F)C2CC2)c1)c1ncnn1-c1ncc(OC(F)F)cn1` (stereo not drawn) [P6, 3-[cyclopropyl(difluoro)methyl]-N-[1-[2-[5-(difluoromethoxy)pyrimidin-2-yl]-1,2,4-triazol-3-yl]ethyl]-5-(trifluoromethyl) benzamide], the percent control (mortality, anti-feedant effect or growth inhibition) at 200 ppm in data set [1] and in data set [3] was at least 80% throughout. The mortality at 500 ppm in data set [2] was at least 80%. Also, in data set [6], the percent effect (mortality or growth inhibition) at 200 ppm is at least 80%. The percent control (mortality or growth inhibition) at 200 ppm in data set [4] and in data set [5] was at least 80% in each case.

As to `CC(NC(=O)c1cc(C2CC2)nc(C(F)(F)F)c1)c1ncnn1-c1ncc(OC(F)F)cn1` (stereo not drawn) [P9, 2-cyclopropyl-N-[1-[2-[5-(difluoromethoxy)pyrimidin-2-yl]-1,2,4-triazol-3-yl]ethyl]-6-(trifluoromethyl) pyridine-4-carboxamide], the percent control (mortality, anti-feedant effect or growth inhibition) at 200 ppm in data set [1] and in data set [3] was at least 80% in each case. Further, in data set [6], the percent effect (mortality or growth inhibition) at 200 ppm is at least 80%. For the same compound, the percent control (mortality or growth inhibition) at 200 ppm in data set [4] and in data set [5] was at least 80% each time.

As for `CC(NC(=O)c1cc(C2CC2C(F)(F)F)cc(C(F)(F)F)c1)c1ncnn1-c1ncc(OCC(F)F)cn1` (stereo not drawn) [P12], the percent control (mortality, anti-feedant effect or growth inhibition) at 200 ppm in data set [1] and in data set [3] was at least 80% in each case. Also, the percent effect (mortality or growth inhibition) at 200 ppm in data set [6] is at least 80%. For the same compound, the percent control (mortality or growth inhibition) at 200 ppm in data set [4] and in data set [5] was at least 80% throughout.

As to `CC(NC(=O)c1cc(C2CC2)cc(C(F)(F)F)c1)c1ncnn1-c1ccc(C#N)cn1` (stereo not drawn) [P14, N-[1-[2-(5-cyano-2-pyridyl)-1,2,4-triazol-3-yl]ethyl]-3-cyclopropyl-5-(trifluoromethyl)benzamide], the percent control (mortality, anti-feedant effect or growth inhibition) at 200 ppm in data set [1] and in data set [3] was at least 80% in each case. The compound further yielded a mortality at 500 ppm in data set [2] of at least 80%. Besides, the percent control (mortality or growth inhibition) at 200 ppm in data set [4] and in data set [5] was at least 80% in each case.

For `CC(NC(=O)c1cc(C2CC2)cc(C(F)(F)F)c1)c1ncnn1-c1ncc(OC(F)F)cn1` (stereo not drawn) [P21, 3-cyclopropyl-N-[1-[2-[5-(difluoromethoxy)pyrimidin-2-yl]-1,2,4-triazol-3-yl]ethyl]-5-(trifluoromethyl) benzamide], the percent control (mortality, anti-feedant effect or growth inhibition) at 200 ppm in data set [1] and in data set [3] was at least 80% each time. In data set [6], the percent effect (mortality or growth inhibition) at 200 ppm is at least 80%. For the same compound, the percent control (mortality or growth inhibition) at 200 ppm in data set [4] and in data set [5] was at least 80% in each case.

Take `CC(NC(=O)c1cc(C(F)(F)F)cc(C2(C#N)CC2)c1)c1ncnn1-c1ccc(OC(F)F)cn1` (stereo not drawn) [P24, 3-(1-cyanocyclopropyl)-N-[1-[2-[5-(difluoromethoxy)-2-pyridyl]-1,2,4-triazol-3-yl]ethyl]-5-(trifluoromethyl) benzamide]: the percent control (mortality, anti-feedant effect or growth inhibition) at 200 ppm in data set [1] and in data set [3] was at least 80% in each case. Also, the percent control (mortality or growth inhibition) at 200 ppm in data set [4] and in data set [5] was at least 80% each time.

For the compound `CC(NC(=O)c1cc(C(F)(F)F)cc(S(=O)(=O)C(F)(F)F)c1)c1ncnn1-c1ncc(OC(F)F)cn1` (stereo not drawn) [P27, N-[1-[2-[5-(difluoromethoxy)pyrimidin-2-yl]-1,2,4-triazol-3-yl]ethyl]-3-(trifluoromethyl)-5-(trifluoromethylsulfonyl) benzamide], the percent control (mortality, anti-feedant effect or growth inhibition) at 200 ppm in data set [1] and in data set [3] was at least 80% in each case. This compound yielded a mortality at 500 ppm in data set [2] of at least 80%. Also, the percent control (mortality or growth inhibition) at 200 ppm in data set [5] was at least 80%.

Regarding `CC(NC(=O)c1cc(C(F)(F)F)cc(S(=O)(=O)C(F)(F)F)c1)c1ncnn1-c1ccc(OC(F)F)cn1` (stereo not drawn) [P28, N-[1-[2-[5-(difluoromethoxy)-2-pyridyl]-1,2,4-triazol-3-yl]ethyl]-3-(trifluoromethyl)-5-(trifluoromethylsulfonyl) benzamide], the percent control (mortality, anti-feedant effect or growth inhibition) at 200 ppm in data set [1] and in data set [3] was at least 80% each time. The mortality at 500 ppm in data set [2] was at least 80%. In data set [5], the percent control (mortality or growth inhibition) at 200 ppm was at least 80%.

Take `CC(NC(=O)c1cc(C(F)(F)F)cc(S(=O)(=O)C(F)(F)F)c1)c1ncnn1-c1ncc(OCC(F)(F)F)cn1` (stereo not drawn) [P29, N-[1-[2-[5-(2,2,2-trifluoroethoxy)pyrimidin-2-yl]-1,2,4-triazol-3-yl]ethyl]-3-(trifluoromethyl)-5-(trifluoromethylsulfonyl) benzamide]: in data set [2], the mortality at 500 ppm is at least 80%. In addition, in data set [3], the percent control (mortality, anti-feedant effect or growth inhibition) at 200 ppm is at least 80%. Besides, in data set [5], the percent control (mortality or growth inhibition) at 200 ppm was at least 80%.

Consider `CC(NC(=O)c1cc(C(F)(F)F)cc(S(=O)(=O)C(F)(F)F)c1)c1ncnn1-c1ccc(OCC(F)(F)F)cn1` (stereo not drawn) [P32, N-[1-[2-[5-(2,2,2-trifluoroethoxy)-2-pyridyl]-1,2,4-triazol-3-yl]ethyl]-3-(trifluoromethyl)-5-(trifluoromethylsulfonyl) benzamide], for which the melting point (usually the temperature, or range, at which the solid turns liquid) fell in the range of 125 to 130 °C.

Regarding `CC(NC(=O)c1cc(C(F)(F)F)nc(C2(C#N)CC2)c1)c1ncnn1-c1ccc(OCC(F)(F)F)cn1` (stereo not drawn) [P33, 2-(1-cyanocyclopropyl)-N-[1-[2-[5-(2,2,2-trifluoroethoxy)-2-pyridyl]-1,2,4-triazol-3-yl]ethyl]-6-(trifluoromethyl) pyridine-4-carboxamide], the melting point was in the range of 170 to 175 °C.

Turning to `CC(NC(=O)c1cc(C(F)(F)F)cc(C2(C#N)CC2)c1)c1ncnn1-c1ccc(OCC(F)(F)F)cn1` (stereo not drawn) [P34, 3-(1-cyanocyclopropyl)-N-[1-[2-[5-(2,2,2-trifluoroethoxy)-2-pyridyl]-1,2,4-triazol-3-yl]ethyl]-5-(trifluoromethyl) benzamide], the melting point is 70 to 75 °C.

In the case of `CC(NC(=O)c1cc(C(F)(F)F)cc(C(F)(F)C2CC2)c1)c1ncnn1-c1ccc(OCC(F)(F)F)cn1` (stereo not drawn) [P35, 3-[cyclopropyl(difluoro)methyl]-N-[1-[2-[5-(2,2,2-trifluoroethoxy)-2-pyridyl]-1,2,4-triazol-3-yl]ethyl]-5-(trifluoromethyl) benzamide], the melting point fell in the range of 48 to 52 °C.

`CC(NC(=O)c1cc(C(F)(F)F)cc(C(F)(F)C2CC2)c1)c1ncnn1-c1ccc(OCC(F)F)cn1` (stereo not drawn) [P36, 3-[cyclopropyl(difluoro)methyl]-N-[1-[2-[5-(2,2-difluoroethoxy)-2-pyridyl]-1,2,4-triazol-3-yl]ethyl]-5-(trifluoromethyl) benzamide] registered a melting point of 105 to 110 °C.
